What was measured:
Assay in all cases: relative viability (nuclei count vs DMSO), 5 days (fraction); higher = more cells survive
[1] = test system: 201T
Outline: (§1)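 Cells from lung cancer lines were seeded into 1536-well plates and, one day later, dosed by pin tool. Treatments were either a single drug or a fixed dose of an anchor drug with five library-drug doses (not always all listed) in √10 steps. After 5 days, nuclei were stained in a one-step fixation (final 0.05% Triton X-100, 1% formaldehyde, 1 ug/ml Hoechst) and counted on 4× images, and relative viability is the treated-to-vehicle nuclei ratio, as the median of duplicate plates.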

[2] = test system: BEN
Outline: as §1

[3] = test system: COR-L 105
Outline: as §1

[4] = test system: EKVX
Outline: as §1

[5] = test system: EPLC-272H
Outline: as §1

[6] = test system: H3255
Outline: as §1

[7] = test system: HCC-827
Outline: as §1

[8] = test system: HOP-62
Outline: as §1

[9] = test system: LCLC-97TM1
Outline: as §1

[10] = test system: LOU-NH91
Outline: as §1

[11] = test system: LU99A
Outline: as §1

[12] = test system: NCI-H1395
Outline: as §1

[13] = test system: NCI-H1437
Outline: as §1

[14] = test system: NCI-H1666
Outline: as §1

[15] = test system: NCI-H1975
Outline: as §1

[16] = test system: NCI-H2085
Outline: as §1

[17] = test system: NCI-H2087
Outline: as §1

[18] = test system: NCI-H2342
Outline: as §1

[19] = test system: NCI-H358
Outline: as §1

[20] = test system: NCI-H647
Outline: as §1

[21] = test system: PC-3 [JPC-3]
Outline: as §1

[22] = test system: SW 1573
Outline: as §1

## Oc1nc(-c2ccc(C(F)(F)F)cc2)nc2c1CSCC2 [XAV939] + COc1cc2c(Oc3ccc(NC(=O)C4(C(=O)Nc5ccc(F)cc5)CC4)cc3F)ccnc2cc1OCCCN1CCOCC1 [Foretinib] (partner 0.25 µM)
[1]; first compound 0.08 µM
  relative viability: 0.88
[1]; first compound 0.253 µM
  relative viability: 0.705
[1]; first compound 0.8 µM
  relative viability: 0.861
[1]; first compound 2.53 µM
  relative viability: 0.746
[2]; first compound 0.08 µM
  relative viability: 0.71
[2]; first compound 0.253 µM
  relative viability: 0.631
[2]; first compound 0.8 µM
  relative viability: 0.577
[2]; first compound 2.53 µM
  relative viability: 0.546
[3]; first compound 0.08 µM
  relative viability: 1.17
[3]; first compound 0.253 µM
  relative viability: 1.06
[3]; first compound 0.8 µM
  relative viability: 1.14
[3]; first compound 2.53 µM
  relative viability: 0.964
[4]; first compound 0.08 µM
  relative viability: 0.876
[4]; first compound 0.253 µM
  relative viability: 0.628
[4]; first compound 0.8 µM
  relative viability: 0.675
[4]; first compound 2.53 µM
  relative viability: 0.793
[5]; first compound 0.08 µM
  relative viability: 0.808
[5]; first compound 0.253 µM
  relative viability: 0.603
[5]; first compound 0.8 µM
  relative viability: 0.672
[5]; first compound 2.53 µM
  relative viability: 0.548
[6]; first compound 0.08 µM
  relative viability: 0.845
[6]; first compound 0.253 µM
  relative viability: 0.825
[6]; first compound 0.8 µM
  relative viability: 0.803
[6]; first compound 2.53 µM
  relative viability: 0.851
[7]; first compound 0.08 µM
  relative viability: 1.11
[7]; first compound 0.253 µM
  relative viability: 0.996
[7]; first compound 0.8 µM
  relative viability: 1.06
[7]; first compound 2.53 µM
  relative viability: 0.989
[8]; first compound 0.08 µM
  relative viability: 1.23
[8]; first compound 0.253 µM
  relative viability: 1.04
[8]; first compound 0.8 µM
  relative viability: 0.996
[8]; first compound 2.53 µM
  relative viability: 0.943
[9]; first compound 0.08 µM
  relative viability: 0.919
[9]; first compound 0.253 µM
  relative viability: 0.796
[9]; first compound 0.8 µM
  relative viability: 0.897
[9]; first compound 2.53 µM
  relative viability: 0.936
[10]; first compound 0.08 µM
  relative viability: 0.932
[10]; first compound 0.253 µM
  relative viability: 0.918
[10]; first compound 0.8 µM
  relative viability: 0.903
[10]; first compound 2.53 µM
  relative viability: 0.891
[11]; first compound 0.08 µM
  relative viability: 0.794
[11]; first compound 0.253 µM
  relative viability: 0.815
[11]; first compound 0.8 µM
  relative viability: 0.744
[11]; first compound 2.53 µM
  relative viability: 0.724
[12]; first compound 0.08 µM
  relative viability: 1.07
[12]; first compound 0.253 µM
  relative viability: 0.783
[12]; first compound 0.8 µM
  relative viability: 1
[12]; first compound 2.53 µM
  relative viability: 0.961
[13]; first compound 0.08 µM
  relative viability: 1.3
[13]; first compound 0.253 µM
  relative viability: 1.18
[13]; first compound 0.8 µM
  relative viability: 1.21
[13]; first compound 2.53 µM
  relative viability: 0.989
[14]; first compound 0.08 µM
  relative viability: 0.99
[14]; first compound 0.253 µM
  relative viability: 0.919
[14]; first compound 0.8 µM
  relative viability: 0.908
[14]; first compound 2.53 µM
  relative viability: 0.952
[15]; first compound 0.08 µM
  relative viability: 0.858
[15]; first compound 0.253 µM
  relative viability: 0.696
[15]; first compound 0.8 µM
  relative viability: 0.691
[15]; first compound 2.53 µM
  relative viability: 0.756
[16]; first compound 0.08 µM
  relative viability: 1.06
[16]; first compound 0.253 µM
  relative viability: 1.11
[16]; first compound 0.8 µM
  relative viability: 0.772
[16]; first compound 2.53 µM
  relative viability: 0.893
[17]; first compound 0.08 µM
  relative viability: 1.04
[17]; first compound 0.253 µM
  relative viability: 1.03
[17]; first compound 0.8 µM
  relative viability: 1.02
[17]; first compound 2.53 µM
  relative viability: 0.677
[18]; first compound 0.08 µM
  relative viability: 1.08
[18]; first compound 0.253 µM
  relative viability: 0.936
[18]; first compound 0.8 µM
  relative viability: 0.932
[18]; first compound 2.53 µM
  relative viability: 0.529
[19]; first compound 0.08 µM
  relative viability: 0.722
[19]; first compound 0.253 µM
  relative viability: 0.596
[19]; first compound 0.8 µM
  relative viability: 0.622
[19]; first compound 2.53 µM
  relative viability: 0.6
[20]; first compound 0.08 µM
  relative viability: 1.21
[20]; first compound 0.253 µM
  relative viability: 0.958
[20]; first compound 0.8 µM
  relative viability: 0.991
[20]; first compound 2.53 µM
  relative viability: 0.609
[21]; first compound 0.08 µM
  relative viability: 1.03
[21]; first compound 0.253 µM
  relative viability: 0.854
[21]; first compound 0.8 µM
  relative viability: 1.02
[21]; first compound 2.53 µM
  relative viability: 0.951
[22]; first compound 0.08 µM
  relative viability: 1.2
[22]; first compound 0.253 µM
  relative viability: 0.816
[22]; first compound 0.8 µM
  relative viability: 0.732
[22]; first compound 2.53 µM
  relative viability: 0.788
